Reference: patent US20240376099A1, “COMPOUNDS AND COMPOSITIONS AS INHIBITORS OF ENDOSOMAL TOLL-LIKE RECEPTORS” (Novartis AG, priority 2016, published 2024)

Molecular target: T1, TLR9 (Homo sapiens, UniProt Q9NR96)
T1 construct: Fresh blood was collected from normal human donors; endogenous in cells; host or cells: human PBMCs from fresh donor blood
T1 sequence (Q9NR96 26-1032): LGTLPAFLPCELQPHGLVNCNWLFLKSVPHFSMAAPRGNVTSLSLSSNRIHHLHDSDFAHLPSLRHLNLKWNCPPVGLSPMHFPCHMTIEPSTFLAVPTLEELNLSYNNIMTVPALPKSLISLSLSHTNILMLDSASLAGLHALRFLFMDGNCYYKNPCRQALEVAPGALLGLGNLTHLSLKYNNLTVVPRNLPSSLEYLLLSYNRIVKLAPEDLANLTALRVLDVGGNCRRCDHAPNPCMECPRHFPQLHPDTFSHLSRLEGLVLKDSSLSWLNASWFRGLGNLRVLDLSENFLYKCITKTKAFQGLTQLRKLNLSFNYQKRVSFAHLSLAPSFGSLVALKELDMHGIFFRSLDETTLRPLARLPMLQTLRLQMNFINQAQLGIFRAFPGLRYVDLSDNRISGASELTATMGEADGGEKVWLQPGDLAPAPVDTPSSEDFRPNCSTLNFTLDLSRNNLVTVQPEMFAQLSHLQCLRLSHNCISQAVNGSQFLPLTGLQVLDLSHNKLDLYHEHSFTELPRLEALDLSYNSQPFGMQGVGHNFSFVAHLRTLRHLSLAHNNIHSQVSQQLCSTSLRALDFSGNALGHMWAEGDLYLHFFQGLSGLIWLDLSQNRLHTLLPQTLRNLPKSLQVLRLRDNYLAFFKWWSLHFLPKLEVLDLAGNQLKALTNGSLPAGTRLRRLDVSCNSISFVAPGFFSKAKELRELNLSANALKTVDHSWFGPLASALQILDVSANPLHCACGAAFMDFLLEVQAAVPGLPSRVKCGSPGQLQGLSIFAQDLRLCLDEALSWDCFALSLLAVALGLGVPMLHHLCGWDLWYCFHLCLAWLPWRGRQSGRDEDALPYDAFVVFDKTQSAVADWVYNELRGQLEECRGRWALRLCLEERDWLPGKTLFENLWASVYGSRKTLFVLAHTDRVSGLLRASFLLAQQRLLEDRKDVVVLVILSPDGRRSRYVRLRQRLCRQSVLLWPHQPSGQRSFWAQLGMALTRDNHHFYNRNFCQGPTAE
Assay: huPBMC TLR9 Antagonist IFNα Assay
Format: cell-based
Settings: human PBMCs stimulated with ODN2216 0.3 μM, 14-16 hrs; IFNα2b AlphaLISA read-out
Procedure, shortened: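 Human PBMCs from fresh donor blood (150,000 cells/well) stimulated 14–16 h at 37 °C with DOTAP-complexed ssRNA40 (final 1 μg/ml for TLR8, 10 μg/mL for TLR7) or ODN2216 (final 0.3 μM, TLR9), 0.25% DMSO, ten-point 1/3 compound dilutions. Supernatant IL-6 read by HTRF (TLR8); IFNα by IFNα2b AlphaLISA (TLR7/TLR9).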

First: Cc1cc(N2CCc3c(c(C)nn3CC34CCC(N5CC[C@H](O)C5)(CC3)CC4)C2)c2cnn(C)c2n1 [compound 75, (S)-1-(4-((5-(1,6-dimethyl-1H-pyrazolo[3,4-b]pyridin-4-yl)-3-methyl-4,5,6,7-tetrahydro-1H-pyrazolo[4,3-c]pyridin-1-yl)methyl)bicyclo[2.2.2]octan-1-yl)pyrrolidin-3-ol]
Second: Cc1cc(N2CCc3c(c(C)nn3CC34CCC(N5C[C@H](O)[C@@H](O)C5)(CC3)CC4)C2)c2cnn(C)c2n1 [compound 80, (3S,4S)-1-(4-((5-(1,6-dimethyl-1H-pyrazolo[3,4-b]pyridin-4-yl)-3-methyl-4,5,6,7-tetrahydro-1H-pyrazolo[4,3-c]pyridin-1-yl)methyl)bicyclo[2.2.2]octan-1-yl)pyrrolidine-3,4-diol]
The IC50 of the first is 3.9-fold higher: 963 nM for the first, 249 nM for the second. The second is the more potent here.

Compared with `Cc1cc(N2CCc3c(c(C)nn3CC34CCC(N(C)C5CCC5)(CC3)CC4)C2)c2cnn(C)c2n1` [compound 79, N-cyclobutyl-4-((5-(1,6-dimethyl-1H-pyrazolo[3,4-b]pyridin-4-yl)-3-methyl-4,5,6,7-tetrahydro-1H-pyrazolo[4,3-c]pyridin-1-yl)methyl)-N-methylbicyclo[2.2.2]octan-1-amine], `Cc1cc(N2CCc3c(c(C)nn3CCC34CCC(N)(CC3)CC4)C2)c2cnn(C)c2n1` [compound 91, 4-(2-(5-(1,6-dimethyl-1H-pyrazolo[3,4-b]pyridin-4-yl)-3-methyl-4,5,6,7-tetrahydro-1H-pyrazolo[4,3-c]pyridin-1-yl)ethyl)bicyclo[2.2.2]octan-1-amine] is 3.4-fold higher in IC50: 64 nM for the first, 215 nM for the second.

First: Cc1nn(CC23CCC(N4CCCC4)(CC2)CC3)c2c1CN(c1ccnc(-c3ccccc3)c1)CC2 [compound 85, 3-methyl-5-(2-phenylpyridin-4-yl)-1-((4-(pyrrolidin-1-yl)bicyclo[2.2.2]octan-1-yl)methyl)-4,5,6,7-tetrahydro-1H-pyrazolo[4,3-c]pyridine]
Second: Cc1cc(N2CCc3c(c(C)nn3CC34CCC(N5CCCC5)(CC3)CC4)C2)c2ccncc2n1 [compound 86, 2-methyl-4-(3-methyl-1-((4-(pyrrolidin-1-yl)bicyclo[2.2.2]octan-1-yl)methyl)-6,7-dihydro-1H-pyrazolo[4,3-c]pyridin-5(4H)-yl)-1,7-naphthyridine]
The IC50 of the first is 4.8-fold lower: 569 nM for the first, 2740 nM for the second.

`Cc1cc(N2CCc3c(c(C)nn3CC34CCC(N)(CC3)CC4)C2)c2ccnc(C)c2n1` [compound 92, 4-((5-(2,8-dimethyl-1,7-naphthyridin-4-yl)-3-methyl-4,5,6,7-tetrahydro-1H-pyrazolo[4,3-c]pyridin-1-yl)methyl)bicyclo[2.2.2]octan-1-amine] gave an IC50 of 94 nM.
